{"source": "patent US7365075B2", "about": "“Aryl sulfonamide compounds and uses related thereto” (Amgen Inc., priority 2003, dated 2008)", "origin": "cited, not measured here", "data": [{"smiles": "CC1(C)[C@@H](OC(=O)CCC(=O)O)CC[C@]2(C)[C@H]3C(=O)C=C4[C@@H]5C[C@@](C)(C(=O)O)CC[C@]5(C)CC[C@@]4(C)[C@]3(C)CC[C@@H]12", "note": "[carbenoxolone]", "values": [{"measurement": "reduction of the intraocular pressure", "setting": "normal patients", "result": 20, "unit": "%"}, {"measurement": "hepatic insulin sensitivity", "setting": "humans", "result": "improved hepatic insulin sensitivity"}, {"measurement": "detrimental effects of glucocorticoids on bone nodule formation", "setting": "bone nodule formation", "result": "lessened"}]}]}
